Source: patent US12275733B2, “Substituted pyrido[3,4-b]indoles for the treatment of cartilage disorders” (Sanofi, priority 2016, dated 2025)

How the values were obtained:
[1] = tested on: ATDC5 cells; experiment: Chondrogenesis activity assay in ATDC5 cells (collagen type II induction, immunofluorescence); type: cell-based, mouse; details: Mus musculus; for EC50: collagen type II induction in ATDC5 cells, concentration reaching 50% of maximum induction; for Emax: maximum percent induction of collagen type II relative to internal reference compound at 10 μM, ATDC5 cells
Summary of the method: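 Mouse ATDC5 cells in insulin (10 μg/ml)-containing DMEM/F12 differentiation medium with 5% FCS were exposed to compound, typically 40 nM–10 μM at 0.1% DMSO, for 4 days at 37 °C. Intracellular collagen type II was quantified by Alexa Fluor 488 immunostaining with high-content imaging, relative to DMSO and a 10 μM reference compound.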

[2] = tested on: primary human chondrocyte pellet cultures; experiment: Chondrogenesis activity assay in primary human chondrocyte pellet cultures (proteoglycan (aggrecan) induction, Blyscan assay); type: cell-based; details: for EC50: 336 h, proteoglycan (aggrecan) induction, primary human chondrocyte pellets, 2 weeks culture; for Emax: Homo sapiens, Chondrocyte, maximum percent proteoglycan (aggrecan) induction relative to the internal reference compound at 10 μM
Procedure: B) Chondrogenesis Activity Assay in Primary Human Chondrocyte Pellet Cultures
In this assay human articular chondrocytes are harvested by enzymatic digestion from articular cartilage and passaged several times to dedifferentiate the chondrocytes and to propagate the cells. Cells are cultured as cell pellets in the presence of the compounds of the invention over 2 weeks, and the chondrogenic differentiation is quantified by the production of the chondrogenic marker aggrecan (proteoglycan).
In detail, primary chondrocytes were harvested by enzymatic digestion from cartilage of osteoarthritis patients undergoing knee joint replacement surgery, and cultured in vitro. Cells were passaged one or two times and aliquots were cryopreserved. To initiate chondrogenesis experiments, cell aliquots were thawn, cultured in Chondrocyte Growth Medium (CGM, Lonza, #CC-3216) and passaged twice to further propagate and dedifferentiate cells. Pellet cultures were initiated by seeding 2.5×10E5 cells per well into a 96-well deep well plate in 600 μl chondrocyte differentiation medium consisting of Dulbecco's Modified Eagle Medium (DMEM, Invitrogen, #41966), 1×ITS-solution (Insulin/Transferrin/sodium selenite; 100× solution: Invitrogen, #51500056), 5 μg/mL linoleic acid (Sigma, #L1012-1G), 1× nonessential amino acids (100× solution: Invitrogen, #11140); 10 nM Dexamethasone, 2 ng/ml TGF-β1 (transforming growth factor β1) and 10 μg/ml ascorbic acid. Cells were spun to pellets by centrifugation (10 min, 400×g). Test compounds dissolved in DMSO were added to yield increasing compound concentrations, typically from 40 nM to 10 μM, and a final DMSO concentration of 0.1%, and the cell pellets cultured at 37° C., and 5% CO2 for 2 weeks. On each 96-well plate, control wells containing no test compound but the same concentration of DMSO, i.e. untreated cells, were included and used as reference for the determination of the effect of the test compounds on the cells, and wells containing an internal reference compound at a concentration of 10 μM were included and used as positive control and for standardizing the results. Chondrocyte differentiation medium and the compounds were exchanged twice weekly until harvest of the pellets.
For harvest of the pellets, medium was removed and the pellet was homogenized by enzymatic digestion. 100 μl of protease solution containing 0.4 mg/ml papain, 50 mM sodium phosphate, 4 mM EDTA and 0.48 mg/ml L-cysteine was added to the pellet in each well of a 96-well plate, the plate was sealed with a plate sealer foil (SILVERseal, Greiner Bio-One) and incubated for 4 to 6 hours at 65° C. with agitation.
The concentration of proteoglycan (aggrecan) was determined by quantification of the sulfated glycosaminoglycan side chains of aggrecan using the Blyscan assay (Kit from Biocolor). Aliquots of the papain-digest were transferred to 400 μl of Blyscan dye solution and incubated at room temperature for 45 min with agitation (1200 rpm). The mixture was centrifuged at 3760×g for 45 min, the supernatant was discarded, and the stained pellet was redissolved in 400 μl of Blyscan dissociation reagent by rotation until the precipitate completely resolved. Optical density was measured at 656 nm using a Tecan Saphire2 instrument, and the amount of proteoglycan determined against a standard curve with chondroitin-4-sulfate.
Induction of proteoglycan (aggrecan) was calculated for each compound concentration relative to the control (untreated cells, i.e. no test compound added), and an EC50 value (effective concentration 50 (in μM (micromollliter)), i.e. the compound concentration at which the effect of the compound on proteoglycan (aggrecan) induction reaches 50% of the maximum induction) was calculated using a sigmoidal signal fit procedure. […]

SMILES | EC50 [1] | Emax [1] | EC50 [2] | Emax [2]
Cc1nccc2c1[nH]c1c(-c3cccc(OCc4nccn4C)c3)cc(Cl)cc12 [Example 271, 6-Chloro-1-methyl-8-[3-(1-methyl-1H-imidazol-2-ylmethoxy)-phenyl]-9H-pyrido[3,4-b]indole] | > 3300 nM | 20 to 50% | 4900 nM | > 200%
Cc1nccc2c1[nH]c1c(-c3c[nH]nc3Cc3ccccc3)cc(Cl)cc12 [Example 199, 8-(3-Benzyl-1H-pyrazol-4-yl)-6-chloro-1-methyl-9H-pyrido[3,4-b]indole] | > 10000 nM | < 20% | 22000 nM | < 40%
COc1ccc(-c2cc(C#N)cc3c2[nH]c2c(C)nccc23)cc1 [Example 33, 8-(4-Methoxy-phenyl)-1-methyl-9H-pyrido[3,4-b]indole-6-carbonitrile] | 120 nM | > 80% | 830 nM | 100 to 200%
COCc1cc(-c2cc(Cl)cc3c2[nH]c2c(C)nccc23)ccc1OC [Example 200, 6-Chloro-8-(4-methoxy-3-methoxymethyl-phenyl)-1-methyl-9H-pyrido[3,4-b]indole] | > 10000 nM | 20 to 50% | 4400 nM | 100 to 200%
Cc1nccc2c1[nH]c1c(-c3ccc(OCc4nccn4C)cc3)cc(Cl)cc12 [Example 39, 6-Chloro-1-methyl-8-[4-(1-methyl-1H-imidazol-2-ylmethoxy)-phenyl]-9H-pyrido[3,4-b]indole] | 170 nM | > 80% | 3700 nM | > 200%
Cc1nccc2c1[nH]c1c(-c3cccc(C=O)c3)cc(Cl)cc12 [Example 250, 3-(6-Chloro-1-methyl-9H-pyrido[3,4-b]indol-8-yl)-benzaldehyde] | > 3300 nM | 50 to 80% | 4900 nM | 100 to 200%
CCc1cc2c3cc(Br)cc(-c4cnn(C)c4)c3n(CC)c2c(C)n1 [Example 216, 6-Bromo-3,9-diethyl-1-methyl-8-(1-methyl-1H-pyrazol-4-yl)-9H-pyrido[3,4-b]indole] | > 10000 nM | < 20% | 990 nM | > 200%
Clc1cc(-c2ccc(Cl)nc2Cl)c2c(c1)c1ccncc1n2CC1CC1 [Example 46, 6-Chloro-9-cyclopropylmethyl-8-(2,6-dichloro-pyridin-3-yl)-pyrido[3,4-b]indole] | 1400 nM | > 80% | 1000 nM | 100 to 200%
CCn1c2c(-c3ccnn3C)cc(Cl)cc2c2ccnc(C)c21 [Example 19, 6-Chloro-9-ethyl-1-methyl-8-(2-methyl-2H-pyrazol-3-yl)-9H-pyrido[3,4-b]indole] | > 10000 nM | 50 to 80% | 6900 nM | 40 to 100%
Cc1nccc2c1[nH]c1c(-c3ccc(CN)cc3)cc(Cl)cc12 [Example 241, 4-(6-Chloro-1-methyl-9H-pyrido[3,4-b]indol-8-yl)-benzylamine] | > 1100 nM | 20 to 50% | 1500 nM | 100 to 200%
Cc1nccc2c1[nH]c1c(-c3ccc4c(c3)CC(C)(C)O4)cc(Cl)cc12 [Example 236, 6-Chloro-8-(2,2-dimethyl-2,3-dihydro-benzofuran-5-yl)-1-methyl-9H-pyrido[3,4-b]indole] | > 3300 nM | < 20% | 4600 nM | > 200%
Cc1nccc2c1[nH]c1c(-c3ccc(OCc4nccc5ccccc45)cc3)cc(Cl)cc12 [Example 270, 6-Chloro-8-[4-(isoquinolin-1-ylmethoxy)-phenyl]-1-methyl-9H-pyrido[3,4-b]indole] | > 1100 nM | 20 to 50% | 4300 nM | 40 to 100%
CCn1c2c(-c3cnn(C)c3)cc(Br)cc2c2cc(C)nc(C)c21 [Example 21, 6-Bromo-9-ethyl-1,3-dimethyl-8-(1-methyl-1H-pyrazol-4-yl)-9H-pyrido[3,4-b]indole] | > 3300 nM | 20 to 50% | 4300 nM | > 200%
Cc1nccc2c1[nH]c1c(-c3ccc(OCCn4ccnc4)cc3)cc(Cl)cc12 [Example 194, 6-Chloro-8-[4-(2-imidazol-1-yl-ethoxy)-phenyl]-1-methyl-9H-pyrido[3,4-b]indole] | 140 nM | > 80% | 830 nM | 100 to 200%
Cc1nccc2c1[nH]c1c(-c3ccc(OCCn4cccn4)cc3)cc(Cl)c(C)c12 [Example 45] | 130 nM | > 80% | 220 nM | 40 to 100%

Continued, in another order:

EC50 [1] | SMILES | Emax [1] | EC50 [2] | Emax [2]
150 nM | Cc1nccc2c1[nH]c1c(-c3ccc(OCC4CCN(C)C4)cc3)cc(Cl)cc12 (stereo not drawn) [Example 228, 6-Chloro-1-methyl-8-[4-(1-methyl-pyrrolidin-3-ylmethoxy)-phenyl]-9H-pyrido[3,4-b]indole] | 50 to 80% | 140 nM | 100 to 200%
3000 nM | Cc1nccc2c1[nH]c1c(-c3ccc4c(c3)CCCO4)cc(Cl)cc12 [Example 184, 6-Chloro-8-chroman-6-yl-1-methyl-9H-pyrido[3,4-b]indole] | 50 to 80% | 1900 nM | 40 to 100%
> 10000 nM | Cc1nccc2c1[nH]c1c(-c3cc(C(F)(F)F)cc(C(F)(F)F)c3)cc(Cl)cc12 [Example 251, 8-(3,5-Bis-trifluoromethyl-phenyl)-6-chloro-1-methyl-9H-pyrido[3,4-b]indole] | < 20% | 9100 nM | 40 to 100%
280 nM | CCn1c2c(-c3cnn(C)c3)cc(Br)cc2c2ccnc(C)c21 [Example 209, 6-Bromo-9-ethyl-1-methyl-8-(1-methyl-1H-pyrazol-4-yl)-9H-pyrido[3,4-b]indole] | > 80% | 2600 nM | > 200%
> 3300 nM | COc1cc(-c2cc(Cl)cc3c2[nH]c2c(C)nccc23)ccc1OCc1cccc(F)n1 [Example 223, 6-Chloro-8-[4-(6-fluoro-pyridin-2-ylmethoxy)-3-methoxy-phenyl]-1-methyl-9H-pyrido[3,4-b]indole] | 20 to 50% | 27000 nM | < 40%
> 3300 nM | Cc1nccc2c1[nH]c1c(-c3cccc(Oc4ncc(Br)cn4)c3)cc(Cl)cc12 [Example 37, 8-[3-(5-Bromo-pyrimidin-2-yloxy)-phenyl]-6-chloro-1-methyl-9H-pyrido[3,4-b]indole] | 20 to 50% | 4300 nM | 100 to 200%
1900 nM | Cc1ncc(-c2cc(Cl)cc3c4ccncc4n(CC(F)(F)F)c23)s1 [Example 171, 6-Chloro-8-(2-methyl-thiazol-5-yl)-9-(2,2,2-trifluoro-ethyl)-9H-pyrido[3,4-b]indole] | > 80% | 4000 nM | > 200%
160 nM | CCn1c2c(-c3ccc(OCC4(C)COC4)cc3)cc(Cl)cc2c2ccnc(C)c21 [Example 256, 6-Chloro-9-ethyl-1-methyl-8-[4-(3-methyl-oxetan-3-ylmethoxy)-phenyl]-9H-pyrido[3,4-b]indole] | > 80% | 1300 nM | > 200%
690 nM | OCCn1cc(-c2cc(Cl)cc3c4ccncc4n(CC(F)(F)F)c23)cn1 [Example 10, 2-(4-[6-Chloro-9-(2,2,2-trifluoroethyl)-9H-pyrido[3,4-b]indol-8-yl]pyrazol-1-yl)ethanol] | > 80% | 2400 nM | 40 to 100%
